Data reported in patent publication US6677354B2, “Piperdines for use as orexin receptor antagonists” (SmithKline Beecham p.l.c., priority 2000, dated 2004).

Experiments:
[1] = system: orexin receptors; test: Rat sleep/EEG studies after central administration; type: in vivo; settings: central administration at the onset of the normal sleep period
Excerpt: Therefore antagonists of its receptor may be useful in the treatment of sleep disorders including insomnia.

[2] = system: food intake in freely-feeding rats; settings: central administration, 4 hour time period; cited from earlier work

For “orexin-A: "orexin-A, an agonist of the orexin receptors"; "Human orexin-A has the amino acid sequence: pyroGlu Pro Leu Pro Asp Cys Cys Arg Gln Lys Thr Cys..."”, the “effect on arousal and sleep” value [1] is given as “dose-related increase in arousal” and the “increase in food intake over control rats receiving vehicle” value [2] is given as “approximately four-fold”.
